A word on the IC50: it is the concentration that inhibits the measured activity by half.

Holding throughout (type): biochemical
For one experiment, the target named is T1, SET8 (Homo sapiens, UniProt Q9NQR1).
T1 sequence (Q9NQR1 1-393): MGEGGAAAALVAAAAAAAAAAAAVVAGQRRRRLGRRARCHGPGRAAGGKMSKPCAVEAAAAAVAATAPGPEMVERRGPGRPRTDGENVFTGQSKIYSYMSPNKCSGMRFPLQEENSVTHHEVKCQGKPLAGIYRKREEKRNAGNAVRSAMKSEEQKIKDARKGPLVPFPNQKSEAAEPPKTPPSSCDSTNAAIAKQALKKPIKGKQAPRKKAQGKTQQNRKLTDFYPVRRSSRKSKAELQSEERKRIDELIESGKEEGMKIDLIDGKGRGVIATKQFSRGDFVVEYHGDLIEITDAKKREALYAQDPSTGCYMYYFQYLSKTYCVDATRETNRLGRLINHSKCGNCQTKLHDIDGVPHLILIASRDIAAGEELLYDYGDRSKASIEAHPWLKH
Kind of experiment: Methyltransferase inhibition panel: SET8. As to conditions: control compound; substrate Nucleosomes 0.05 mg/mL. How it is done:
(§1) The ability of ETP69 to inhibit methyltransferases was tested.

A further experiment deals with DNMT3a (Homo sapiens, UniProt Q9Y6K1). Kind of experiment: Methyltransferase inhibition panel: DNMT3a. Particulars: read-out: Control IC50*. As to the method: as §1
A further experiment deals with DNMT3b (Homo sapiens, UniProt Q9UBC3). In words: Methyltransferase inhibition panel: DNMT3b. Particulars: read-out: Control IC50*. How it is done: as §1
The next experiment deals with DNMT3b/3L (Homo sapiens, UniProt Q9UBC3). Kind of experiment: Methyltransferase inhibition panel: DNMT3b/3L. As to conditions: read-out: Control IC50*. As to the method: as §1
A further experiment deals with T2, GLP (Homo sapiens, UniProt Q9H9B1).
T2 sequence (Q9H9B1 1-1298): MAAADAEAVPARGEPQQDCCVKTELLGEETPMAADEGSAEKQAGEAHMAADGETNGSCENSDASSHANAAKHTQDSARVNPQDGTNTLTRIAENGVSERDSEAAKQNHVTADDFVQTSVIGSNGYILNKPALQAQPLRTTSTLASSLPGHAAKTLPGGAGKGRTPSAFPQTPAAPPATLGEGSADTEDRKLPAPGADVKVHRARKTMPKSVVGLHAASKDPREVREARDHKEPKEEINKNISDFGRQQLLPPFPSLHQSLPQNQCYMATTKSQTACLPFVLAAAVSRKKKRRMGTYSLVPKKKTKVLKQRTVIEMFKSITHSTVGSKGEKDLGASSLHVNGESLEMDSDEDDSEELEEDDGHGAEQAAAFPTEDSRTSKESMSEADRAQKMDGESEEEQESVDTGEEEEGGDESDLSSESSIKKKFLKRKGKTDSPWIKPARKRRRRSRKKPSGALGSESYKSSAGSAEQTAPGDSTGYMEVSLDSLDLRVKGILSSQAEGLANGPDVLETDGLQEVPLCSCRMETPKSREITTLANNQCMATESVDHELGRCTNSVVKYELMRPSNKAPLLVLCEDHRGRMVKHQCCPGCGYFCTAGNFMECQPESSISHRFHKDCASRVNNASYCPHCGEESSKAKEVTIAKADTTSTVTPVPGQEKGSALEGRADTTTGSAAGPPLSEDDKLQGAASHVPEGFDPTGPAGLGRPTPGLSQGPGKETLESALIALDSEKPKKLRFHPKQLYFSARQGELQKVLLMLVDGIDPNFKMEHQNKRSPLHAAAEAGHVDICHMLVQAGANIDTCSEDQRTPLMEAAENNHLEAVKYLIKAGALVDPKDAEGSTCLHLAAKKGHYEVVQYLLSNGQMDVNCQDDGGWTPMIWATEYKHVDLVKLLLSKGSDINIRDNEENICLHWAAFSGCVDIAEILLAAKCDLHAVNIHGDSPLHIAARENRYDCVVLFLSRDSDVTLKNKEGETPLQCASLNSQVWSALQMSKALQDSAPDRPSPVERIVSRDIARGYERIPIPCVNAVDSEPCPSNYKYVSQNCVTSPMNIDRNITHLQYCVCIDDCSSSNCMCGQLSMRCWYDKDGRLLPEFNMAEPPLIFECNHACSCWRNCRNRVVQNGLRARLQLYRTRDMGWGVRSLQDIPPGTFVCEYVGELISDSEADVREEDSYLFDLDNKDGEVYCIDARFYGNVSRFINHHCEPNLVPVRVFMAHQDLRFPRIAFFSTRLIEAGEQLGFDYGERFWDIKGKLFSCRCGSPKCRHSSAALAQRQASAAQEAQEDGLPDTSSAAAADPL
Kind of experiment: Methyltransferase inhibition panel: GLP. As to conditions: read-out: Control IC50*. How it is done:
as §1

Another experiment addresses METTL21A (Homo sapiens, UniProt Q8WXB1). Kind of experiment: Methyltransferase inhibition panel: METTL21A. As to conditions: control compound; substrate HSPA8-[CTD] 2.5 μM. How it is done: as §1
For a further experiment, the target named is MLL1 Complex (Homo sapiens, UniProt Q03164). Kind of experiment: Methyltransferase inhibition panel: MLL1 Complex. Particulars: control compound; substrate Nucleosomes 0.05 mg/mL. How it is done:
as §1

In a further experiment the target is MLL2 Complex (Homo sapiens, UniProt O14686). In words: Methyltransferase inhibition panel: MLL2 Complex. Particulars: control compound; substrate Nucleosomes 0.05 mg/mL. As to the method:
as §1

The target of another experiment is MLL3 Complex (Homo sapiens, UniProt Q8NEZ4). Kind of experiment: Methyltransferase inhibition panel: MLL3 Complex. As to conditions: control compound; substrate Nucleosomes 0.05 mg/mL. As to the method: as §1
Sequence of MLL3 Complex (Q15291 whole entry): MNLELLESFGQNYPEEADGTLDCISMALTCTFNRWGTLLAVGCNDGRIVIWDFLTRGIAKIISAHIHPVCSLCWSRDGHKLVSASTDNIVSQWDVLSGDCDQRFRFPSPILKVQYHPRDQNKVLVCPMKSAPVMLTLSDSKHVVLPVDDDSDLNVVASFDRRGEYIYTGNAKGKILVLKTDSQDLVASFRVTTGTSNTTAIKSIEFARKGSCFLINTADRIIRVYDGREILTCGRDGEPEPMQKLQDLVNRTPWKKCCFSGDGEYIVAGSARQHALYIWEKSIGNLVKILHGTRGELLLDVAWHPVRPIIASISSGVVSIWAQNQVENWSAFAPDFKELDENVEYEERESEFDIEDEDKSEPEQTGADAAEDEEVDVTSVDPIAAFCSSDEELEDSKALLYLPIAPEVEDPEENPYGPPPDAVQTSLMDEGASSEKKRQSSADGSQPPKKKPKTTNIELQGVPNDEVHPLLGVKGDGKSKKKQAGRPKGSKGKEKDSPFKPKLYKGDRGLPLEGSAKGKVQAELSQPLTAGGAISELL
Sequence of MLL3 Complex (Q8NEZ4 4689-4911): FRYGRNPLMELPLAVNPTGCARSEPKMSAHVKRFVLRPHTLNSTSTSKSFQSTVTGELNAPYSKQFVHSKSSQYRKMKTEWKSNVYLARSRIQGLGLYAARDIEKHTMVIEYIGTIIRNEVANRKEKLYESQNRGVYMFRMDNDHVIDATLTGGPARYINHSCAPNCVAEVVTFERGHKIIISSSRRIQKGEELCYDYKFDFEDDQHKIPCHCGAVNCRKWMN
Sequence of MLL3 Complex (Q9UBL3 96-628, further chain): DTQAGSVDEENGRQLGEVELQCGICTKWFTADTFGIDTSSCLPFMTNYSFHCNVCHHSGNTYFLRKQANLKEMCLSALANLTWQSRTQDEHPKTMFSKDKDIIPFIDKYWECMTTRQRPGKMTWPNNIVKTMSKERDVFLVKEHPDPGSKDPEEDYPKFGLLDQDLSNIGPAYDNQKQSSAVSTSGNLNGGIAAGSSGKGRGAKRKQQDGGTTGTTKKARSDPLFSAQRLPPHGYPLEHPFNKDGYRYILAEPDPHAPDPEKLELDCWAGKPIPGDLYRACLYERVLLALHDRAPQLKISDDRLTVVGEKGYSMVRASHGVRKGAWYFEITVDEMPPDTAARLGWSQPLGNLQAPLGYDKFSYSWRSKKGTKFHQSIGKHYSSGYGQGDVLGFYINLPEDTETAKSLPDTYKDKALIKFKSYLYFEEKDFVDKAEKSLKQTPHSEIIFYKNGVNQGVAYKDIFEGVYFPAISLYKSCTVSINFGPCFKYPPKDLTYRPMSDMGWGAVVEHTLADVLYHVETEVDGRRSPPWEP
Sequence of MLL3 Complex (Q9C005 whole entry, further chain): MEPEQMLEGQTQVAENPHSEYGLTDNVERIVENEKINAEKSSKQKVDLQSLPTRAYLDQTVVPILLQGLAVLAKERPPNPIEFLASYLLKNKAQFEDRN
The target of another experiment is MLL4 Complex (Homo sapiens, UniProt Q9UMN6). Kind of experiment: Methyltransferase inhibition panel: MLL4 Complex. Particulars: control compound; substrate Nucleosomes 0.05 mg/mL. As to the method: as §1
Another experiment concerns the target T3, NRMT1 (Homo sapiens, UniProt Q9BV86).
T3 sequence (Q9BV86 1-223): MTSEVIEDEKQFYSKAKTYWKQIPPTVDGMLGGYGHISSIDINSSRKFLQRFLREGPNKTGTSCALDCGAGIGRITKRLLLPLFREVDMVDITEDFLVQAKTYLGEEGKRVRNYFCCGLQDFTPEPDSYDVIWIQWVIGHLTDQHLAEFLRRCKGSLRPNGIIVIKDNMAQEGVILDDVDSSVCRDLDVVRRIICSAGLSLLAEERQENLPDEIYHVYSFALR
In words: Methyltransferase inhibition panel: NRMT1. As to conditions: control compound; substrate RCC1 5 μM. As to the method:
as §1

Another experiment addresses NSD1 (Homo sapiens, UniProt Q96L73). Kind of experiment: Methyltransferase inhibition panel: NSD1. Particulars: control compound; substrate Nucleosomes 0.05 mg/mL. As to the method: as §1
In a further experiment the target is PRMT3 (Homo sapiens, UniProt O60678). In words: Methyltransferase inhibition panel: PRMT3. Particulars: control compound; substrate Histone H4 5 μM. As to the method:
as §1

The next experiment deals with PRMT6 (Homo sapiens, UniProt Q96LA8). In words: Methyltransferase inhibition panel: PRMT6. Particulars: control compound; substrate GST-GAR 5 μM. How it is done:
as §1

The next experiment deals with SET1b Complex (Homo sapiens, UniProt Q9UPS6). In words: Methyltransferase inhibition panel: SET1b Complex. Particulars: control compound; substrate Core Histone 0.05 mg/mL. As to the method: as §1
Sequence of SET1b Complex (Q15291 whole entry): as the sequence (Q15291 whole entry) above
Sequence of SET1b Complex (Q9UBL3 whole entry, further chain): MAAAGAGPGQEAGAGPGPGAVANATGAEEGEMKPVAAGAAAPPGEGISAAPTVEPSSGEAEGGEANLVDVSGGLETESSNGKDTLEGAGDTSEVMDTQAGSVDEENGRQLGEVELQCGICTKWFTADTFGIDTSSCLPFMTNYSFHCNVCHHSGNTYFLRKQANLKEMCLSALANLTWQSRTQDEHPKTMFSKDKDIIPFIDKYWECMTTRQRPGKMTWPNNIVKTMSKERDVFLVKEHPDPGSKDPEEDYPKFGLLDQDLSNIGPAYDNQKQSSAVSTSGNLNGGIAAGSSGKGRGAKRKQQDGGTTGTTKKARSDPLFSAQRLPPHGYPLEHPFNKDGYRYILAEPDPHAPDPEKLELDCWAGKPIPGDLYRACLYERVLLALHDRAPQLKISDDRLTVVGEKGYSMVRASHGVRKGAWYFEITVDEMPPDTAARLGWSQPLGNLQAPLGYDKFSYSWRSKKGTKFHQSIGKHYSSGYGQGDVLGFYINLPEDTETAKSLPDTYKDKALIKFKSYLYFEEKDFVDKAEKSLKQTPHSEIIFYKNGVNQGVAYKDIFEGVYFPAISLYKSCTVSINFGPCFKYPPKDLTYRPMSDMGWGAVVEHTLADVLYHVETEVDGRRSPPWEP
Sequence of SET1b Complex (Q9UPS6 whole entry): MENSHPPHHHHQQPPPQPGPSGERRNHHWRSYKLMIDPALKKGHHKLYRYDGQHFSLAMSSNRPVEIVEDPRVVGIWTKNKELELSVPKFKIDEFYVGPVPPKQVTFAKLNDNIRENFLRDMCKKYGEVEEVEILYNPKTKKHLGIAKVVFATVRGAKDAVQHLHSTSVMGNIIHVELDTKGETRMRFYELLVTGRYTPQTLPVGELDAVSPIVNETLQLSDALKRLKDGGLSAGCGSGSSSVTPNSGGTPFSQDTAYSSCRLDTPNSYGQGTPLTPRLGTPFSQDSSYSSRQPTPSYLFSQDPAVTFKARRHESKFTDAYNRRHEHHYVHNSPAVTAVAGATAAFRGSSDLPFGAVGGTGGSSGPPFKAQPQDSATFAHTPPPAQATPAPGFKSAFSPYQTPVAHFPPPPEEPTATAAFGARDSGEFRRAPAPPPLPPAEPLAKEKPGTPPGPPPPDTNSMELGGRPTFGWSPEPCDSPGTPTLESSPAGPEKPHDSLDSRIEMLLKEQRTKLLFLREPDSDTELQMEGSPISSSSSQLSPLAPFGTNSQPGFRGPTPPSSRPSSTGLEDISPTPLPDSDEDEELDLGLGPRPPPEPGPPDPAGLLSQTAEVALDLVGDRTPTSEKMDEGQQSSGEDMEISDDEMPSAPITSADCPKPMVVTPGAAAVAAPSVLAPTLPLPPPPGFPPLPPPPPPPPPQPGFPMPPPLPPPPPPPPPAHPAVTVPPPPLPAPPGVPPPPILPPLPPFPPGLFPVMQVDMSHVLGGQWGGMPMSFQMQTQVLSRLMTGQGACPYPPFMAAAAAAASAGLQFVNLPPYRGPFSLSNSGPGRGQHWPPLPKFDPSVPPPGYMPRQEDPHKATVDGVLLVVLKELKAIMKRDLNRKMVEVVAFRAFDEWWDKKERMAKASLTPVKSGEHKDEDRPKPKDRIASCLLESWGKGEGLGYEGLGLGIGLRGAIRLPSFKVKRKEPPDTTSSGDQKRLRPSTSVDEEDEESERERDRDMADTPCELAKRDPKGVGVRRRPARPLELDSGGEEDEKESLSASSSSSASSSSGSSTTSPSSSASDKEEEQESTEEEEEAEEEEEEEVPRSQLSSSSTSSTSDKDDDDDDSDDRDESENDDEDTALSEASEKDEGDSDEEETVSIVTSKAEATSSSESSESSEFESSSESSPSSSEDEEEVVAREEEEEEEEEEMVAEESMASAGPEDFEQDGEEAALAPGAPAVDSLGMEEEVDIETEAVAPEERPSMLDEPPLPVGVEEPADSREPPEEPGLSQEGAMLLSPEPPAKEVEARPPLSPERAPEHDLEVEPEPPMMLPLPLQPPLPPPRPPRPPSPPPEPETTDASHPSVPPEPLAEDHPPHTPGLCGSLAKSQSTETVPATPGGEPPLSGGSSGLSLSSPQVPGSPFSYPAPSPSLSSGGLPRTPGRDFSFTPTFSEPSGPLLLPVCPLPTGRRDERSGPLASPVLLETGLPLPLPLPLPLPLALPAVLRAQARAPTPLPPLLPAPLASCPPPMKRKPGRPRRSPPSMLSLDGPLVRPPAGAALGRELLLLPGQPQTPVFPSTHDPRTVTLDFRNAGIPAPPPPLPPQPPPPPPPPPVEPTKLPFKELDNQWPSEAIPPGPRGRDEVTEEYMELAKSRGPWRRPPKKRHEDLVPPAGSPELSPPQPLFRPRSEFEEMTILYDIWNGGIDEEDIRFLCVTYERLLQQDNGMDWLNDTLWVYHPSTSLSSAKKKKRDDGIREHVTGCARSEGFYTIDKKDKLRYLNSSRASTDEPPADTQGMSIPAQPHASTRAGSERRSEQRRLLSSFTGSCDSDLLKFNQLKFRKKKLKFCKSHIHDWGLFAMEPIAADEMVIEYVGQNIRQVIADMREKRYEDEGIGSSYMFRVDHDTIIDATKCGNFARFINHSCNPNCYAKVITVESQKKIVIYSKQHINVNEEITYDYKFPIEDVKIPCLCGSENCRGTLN
Sequence of SET1b Complex (Q9C005 whole entry, further chain): as the sequence (Q9C005 whole entry, further chain) above
Another experiment addresses T4, SET7/9 (Homo sapiens, UniProt Q8WTS6).
T4 sequence (Q8WTS6 1-366): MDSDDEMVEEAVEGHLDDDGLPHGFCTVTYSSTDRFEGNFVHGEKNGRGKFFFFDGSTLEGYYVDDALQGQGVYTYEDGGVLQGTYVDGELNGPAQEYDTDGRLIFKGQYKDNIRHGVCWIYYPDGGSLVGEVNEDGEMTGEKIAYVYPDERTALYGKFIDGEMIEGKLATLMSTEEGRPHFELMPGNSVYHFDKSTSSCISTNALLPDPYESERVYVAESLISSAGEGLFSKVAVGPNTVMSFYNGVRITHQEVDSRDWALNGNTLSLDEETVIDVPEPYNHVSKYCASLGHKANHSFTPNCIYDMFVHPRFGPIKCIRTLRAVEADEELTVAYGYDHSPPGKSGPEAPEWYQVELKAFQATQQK
Kind of experiment: Methyltransferase inhibition panel: SET7/9. Particulars: control compound; substrate Core Histone 0.05 mg/mL. As to the method: as §1

A further experiment deals with SETDB1 (Homo sapiens, UniProt Q15047). In words: Methyltransferase inhibition panel: SETDB1. As to conditions: control compound; substrate Histone H3 5 μM. How it is done:
as §1

A further experiment has as its target SETD2 (Homo sapiens, UniProt Q9BYW2). In words: Methyltransferase inhibition panel: SETD2. As to conditions: control compound; substrate Nucleosomes 0.05 mg/mL. How it is done:
as §1

The target in the next experiment is T5, SMYD3 (Homo sapiens, UniProt Q9H7B4).
T5 sequence (Q9H7B4 1-428): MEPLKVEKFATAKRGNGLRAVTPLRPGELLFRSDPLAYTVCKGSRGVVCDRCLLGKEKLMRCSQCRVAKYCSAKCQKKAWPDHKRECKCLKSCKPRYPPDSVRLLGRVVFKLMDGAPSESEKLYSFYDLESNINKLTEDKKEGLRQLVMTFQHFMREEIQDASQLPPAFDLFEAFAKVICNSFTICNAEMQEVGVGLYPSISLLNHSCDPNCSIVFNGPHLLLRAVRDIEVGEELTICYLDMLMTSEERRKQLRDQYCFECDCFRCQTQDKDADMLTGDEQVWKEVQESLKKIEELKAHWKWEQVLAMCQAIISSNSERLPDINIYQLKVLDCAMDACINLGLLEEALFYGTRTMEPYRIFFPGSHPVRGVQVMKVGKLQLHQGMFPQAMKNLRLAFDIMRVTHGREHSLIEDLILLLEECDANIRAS
In words: Methyltransferase inhibition panel: SMYD3. Particulars: control compound; substrate MEKK2 0.5 μM. As to the method: as §1

Another experiment deals with SUV39H2 (Homo sapiens, UniProt Q9H5I1). In words: Methyltransferase inhibition panel: SUV39H2. As to conditions: control compound; substrate Histone H3 5 μM. How it is done: as §1
The next experiment has as its target SUV420H1TV2 (Homo sapiens, UniProt Q4FZB7). Kind of experiment: Methyltransferase inhibition panel: SUV420H1TV2. As to conditions: control compound; substrate Nucleosomes 0.05 mg/mL. How it is done:
as §1

Sequence of METTL21A (Q8WXB1 whole entry): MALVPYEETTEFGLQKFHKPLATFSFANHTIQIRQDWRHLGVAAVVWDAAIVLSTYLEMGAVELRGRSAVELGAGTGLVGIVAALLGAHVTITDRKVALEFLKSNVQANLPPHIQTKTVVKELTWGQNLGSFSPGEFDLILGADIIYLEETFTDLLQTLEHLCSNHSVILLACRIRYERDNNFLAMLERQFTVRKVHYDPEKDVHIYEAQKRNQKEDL
Sequence of SUV420H1TV2 (Q4FZB7 1-393 isoform Q4FZB7-2): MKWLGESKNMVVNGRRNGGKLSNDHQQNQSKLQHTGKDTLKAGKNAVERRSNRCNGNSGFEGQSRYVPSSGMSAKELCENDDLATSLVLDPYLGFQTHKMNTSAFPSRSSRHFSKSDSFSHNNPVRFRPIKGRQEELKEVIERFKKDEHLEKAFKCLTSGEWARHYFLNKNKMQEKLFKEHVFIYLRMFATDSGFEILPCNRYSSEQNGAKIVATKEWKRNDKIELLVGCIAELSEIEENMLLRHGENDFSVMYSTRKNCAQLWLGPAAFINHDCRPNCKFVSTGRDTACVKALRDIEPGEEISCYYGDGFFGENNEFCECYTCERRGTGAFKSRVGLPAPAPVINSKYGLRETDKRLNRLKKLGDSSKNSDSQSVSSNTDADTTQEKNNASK

For `Cc1ccc(NC2=CC(=O)c3sc(C)nc3C2=O)cc1` [Ryuvidine, reference compound], on SET8, the IC50 is 0.109 µM.

Regarding `Nc1ncnc2c1ncn2[C@@H]1O[C@H](CSCC[C@H](N)C(=O)O)[C@@H](O)[C@H]1O` [SAH, reference compound], the IC50 amounted to 0.154 µM at DNMT3a; 0.0379 µM at DNMT3b; 0.0193 µM on DNMT3b/3L; 0.553 µM at GLP; 64.6 µM against METTL21A; 0.205 µM on MLL1 Complex. Besides, the IC50 against MLL2 Complex was determined as 21.2 µM; against MLL3 Complex it was 18.9 µM; at MLL4 Complex it was 0.816 µM; against NRMT1, 0.31 µM; at NSD1 it was 7.51 µM; at PRMT3, 0.87 µM. The IC50 came out at 0.204 µM against PRMT6; 8.59 µM against SET1b Complex; 82.9 µM against SET7/9; 1.04 µM on SETDB1; 3.06 µM on SETD2; 14.2 µM against SMYD3. The IC50 against SUV39H2 turned out to be 44.3 µM; against SUV420H1TV2 it was 117 µM.

The values are drawn from US20260207585A1, “METHODS AND COMPOSITIONS FOR THE TREATMENT OF PARKINSON'S DISEASE, HUNTINGTON'S DISEASE, AMYOTROPHIC LATERAL SCLEROSIS, AND LEARNING DISORDERS” (Cedars-Sinai Medical Center, priority 2022, published 2026).
